This is an account of results in patent publication US8680282B2, “Cyclic inhibitors of carnitine palmitoyltransferase and treating cancer” (University Health Network, priority 2007, dated 2014).

A value given as a limit tells only on which side of the number the result lay.

Assay in all cases: Cancer cell growth inhibition, SRB assay
What all share (type): cell-based, human
A general note: Sulforhodamine B stains cellular protein and so reports cell mass.

In one assay the test system is SW620. On the set-up: Percentage of Growth Inhibition: scale not given here. As to conditions: SRB at Day 6; for GI50: Homo sapiens, SW-620, 144 h, SW620 (Colon), triplicate; for Percentage of Growth Inhibition: SW620, at 10 μM, NE = no activity at 10 micromolar.
The next assay concerns COLO-205. As to conditions: SRB at Day 6; for GI50: Homo sapiens, 144 h, COLO-205 (Colon), triplicate; for Percentage of Growth Inhibition: COLO-205, at 10 μM, NE = no activity at 10 micromolar.
The next assay has as its system MCF-7. Further details: Percentage of Growth Inhibition: scale not given here. As to conditions: SRB at Day 6; for GI50: Homo sapiens, MCF7, 144 h, MCF-7 (Breast), triplicate; for Percentage of Growth Inhibition: MCF-7, at 10 μM, NE = no activity at 10 micromolar. As for the experimental part:
(§1) Human cancer cells (MCF-7, H358, H460, HCT116 p53^+/+, HCT116 p53^−/−, A172, PC-3, DU-145 and SW626) were maintained in DMEM medium containing 10% Fetal Bovine Serum (FBS) (Invitrogen, Burlington, ON, Canada) and normal cells HMEC, 184A1, NHBE and PrEC were cultured in MEGM, MEGM plus transferring and cholera toxin, BEGM and PrEGM supplemented with various growth factors (Cambrex, Charles city, Iowa, USA), respectively.
(§2) Compounds of Examples S1 to S30, and 4-(carboxymethyl)-4-(6-(3-hexyloxy)phenoxy)hexanoamido)-1,1-dimethylpiperidinium 2,2,2-trifluoroactate (“Compound A”) were tested in this example. Each of the tested compounds was dissolved in DMSO and further diluted in cell culture medium for the experiments performed. Cells were seeded into 96-well plates with 1,500-5,000 cells/well according to cell growth rate. After 24 h, DMEM medium containing 10% FBS were changed to DMEM containing 3% FBS for cancer cells. The compound was added into the cell culture at the indicated concentrations, and the final concentration of DMSO was adjusted to a final concentration of 0.1%. Cell viability was assessed by Sulforhodamine B (SRB) assay at Day 6.
(§3) Sulforhodamine B (SRB) (Sigma, Oakville, ON, Canada) is a water-soluble dye that binds to the basic amino acids of the cellular proteins. Thus, colorimetric measurement of the bound dye provides an estimate of the total protein mass that is related to the cell number. The cells were fixed in situ by gently aspirating off the culture media and adding 50 ul of cold 10% Tri-chloroacetic Acid (TCA) per well and incubated at 4° C. for 30-60 min. The plates were washed five times with water and allowed to air dry for 5 min. 50 ul of 0.4% (w/v) SRB dissolved in 1% (v/v) acetic acid were added into each well, plates were then incubated at RT for 30 min for staining, washed four times with 1% acetic acid to remove any unbound dye and then allowed to air dry for 5 min. Stain was solubilized with 100 ul of 10 mM Tris pH 10.5 per well. Absorbance was read at 570 nm on a spectrophotometer. GI50 (compound concentration required for 50% of growth inhibition) was calculated using GraphPad Prism 4.0 software (GraphPad Software, Inc., San Diego, Calif., USA). Growth inhibition (%) was determined as percentage of cells remaining compared to the DMSO-treated cells as control.

The subject of a further assay is SW626. Further details: Percentage of Growth Inhibition: scale not given here. As to conditions: SRB at Day 6; for GI50: Homo sapiens, 144 h, SW626 (Ovarian), triplicate; for Percentage of Growth Inhibition: SW626, at 10 μM, NE = no activity at 10 micromolar. The procedure: as §1, §2, §3

One may read the GI50 as the concentration giving 50% growth inhibition. With `CCCCCCCCc1ccc(NC(=O)NC2(CC(=O)O)CC[N+](C)(C)CC2)cc1` [Example S2, 4-(Carboxymethyl)-1,1-dimethyl-4-(3-(4-octylphenyl)ureido)piperidinium 2,2,2-trifluoroacetate], the GI50 stood at 2 µM in the assay on SW620, 1.3 µM in the assay with COLO-205, 10 µM in the assay on MCF-7 and 2.5 µM with SW626.

On to `CCCCCc1ccc(S(=O)(=O)NC2(CC(=O)O)CCN(C)CC2)cc1` [Example S3, 4-(carboxymethyl)-1-methyl-4-(4-pentylphenylsulfonamido)piperidinium 2,2,2-trifluoroacetate], for which the “Percentage of Growth Inhibition” value in the assay on SW620 came out at 0.03948%; with COLO-205, 0.03424%; in the assay on MCF-7, 0.007318%.

Consider `CCCCCc1ccc(S(=O)(=O)NC2(CC(=O)O)CC[N+](C)(C)CC2)cc1` [Example S4, 4-(Carboxymethyl)-1,1-dimethyl-4-(4-pentylphenylsulfonamido)piperidinium 2,2,2-trifluoroacetate], for which the GI50 with SW620 and with COLO-205 was more than 50 µM throughout.

`C[N+]1(C)CCC(CC(=O)O)(NC(=O)c2ccc(CCc3ccccc3)o2)CC1` [Example S5, 4-(Carboxymethyl)-1,1-dimethyl-4-(5-phenethylfuran-2-carboxamido)-piperidinium 2,2,2-trifluoroacetate]: the “Percentage of Growth Inhibition” value in the assay with SW620 is 0.05572%; in the assay with COLO-205, 0.1219%; in the assay on MCF-7, 0.02312%; with SW626, 0.03032%.

On to `C[N+]1(C)CCC(CC(=O)O)(NC(=O)c2ccc(C#Cc3ccccc3)o2)CC1` [Example S6, 4-(Carboxymethyl)-1,1-dimethyl-4-(5-(phenylethynyl)furan-2-carboxamido)-piperidinium 2,2,2-trifluoroacetate], for which the “Percentage of Growth Inhibition” value in the assay on SW620 worked out at 0.05805%; in the assay with COLO-205, 0.1543%; in the assay on MCF-7 it was 0.03714%; with SW626, 0.2084%.

Take `CCCCCCCCc1ccc(NS(=O)(=O)NC2(CC(=O)O)CCN(C)CC2)cc1` [Example S7, 4-(carboxymethyl)-1-methyl-4-(N-(4-octylphenyl)sulfamoylamino)-piperidinium 2,2,2-trifluoroacetate]: the concentration for 50% growth inhibition (GI50) is more than 50 µM in the assay on SW620, 74 µM with COLO-205, 27 µM in the assay with MCF-7 and more than 50 µM in the assay on SW626.

As for `CCCCCCCCc1ccc(NS(=O)(=O)NC2(CC(=O)O)CC[N+](C)(C)CC2)cc1` [Example S8, 4-(carboxymethyl)-1,1-dimethyl-4-(N-(4-octylphenyl)sulfamoylamino)piperidinium 2,2,2-trifluoroacetate], the GI50 amounted to 8.4 µM with SW620, 5.3 µM with COLO-205, 2 µM with MCF-7 and 15 µM in the assay with SW626.

For `CCCCCCCCc1ccc(NC(=O)NC2(CC(=O)O)CCC[NH+](C)C2)cc1` (stereo not shown) [Example S9, 3-(Carboxymethyl)-1-methyl-3-(3-(4-octylphenyl)ureido)piperidinium 2,2,2-trifluoroacetate], the “Percentage of Growth Inhibition” value worked out at 0.04904% in the assay with SW620, 0.2852% in the assay with COLO-205, 0.02731% with MCF-7 and 0.02424% with SW626.

On to `CCCCCCCCc1ccc(NC(=O)NC2(CC(=O)O)CCC[N+](C)(C)C2)cc1` (stereo not shown) [Example S10, 3-(carboxymethyl)-1,1-dimethyl-3-(3-(4-octylphenyl)ureido)-piperidinium 2,2,2-trifluoroacetate], for which the 50% growth inhibitory concentration (GI50) worked out at 2.5 µM in the assay on SW620, 1 µM in the assay on COLO-205, 5.1 µM in the assay on MCF-7 and 2.7 µM in the assay with SW626.

Take `CCCCCCCCc1ccc(NS(=O)(=O)NC2(CC(=O)O)CCCN(C)C2)cc1` (stereo not shown) [Example S15, 3-(carboxymethyl)-1-methyl-3-(N-(4-octylphenyl)sulfamoylamino)-piperidinium 2,2,2-trifluoroacetate]: the GI50 in the assay on SW620 was determined as 27 µM; in the assay on COLO-205, 21 µM; in the assay on MCF-7, 15 µM; in the assay with SW626, 33 µM.

For the compound `CCCCCCCCc1ccc(NS(=O)(=O)NC2(CC(=O)O)CCC[N+](C)(C)C2)cc1` (stereo not shown) [Example S16, 3-(carboxymethyl)-1,1-dimethyl-3-(N-(4-octylphenyl)sulfamoylamino)-piperidinium 2,2,2-trifluoroacetate], the GI50 stood at 20 µM in the assay with SW620, 10 µM in the assay on COLO-205, 3.9 µM in the assay on MCF-7 and 18 µM with SW626.

On to `CCCCCCCCc1ccc(NC(=O)NC2(CC(=O)O)CC[N+](C)(C)C2)cc1` (stereo not shown) [Example S18, 3-(carboxymethyl)-1,1-dimethyl-3-(3-(4-octylphenyl)ureido)-pyrrolidinium 2,2,2-trifluoroacetate], for which the GI50 in the assay on SW620 was 3.1 µM; with COLO-205 it was 1.9 µM; with MCF-7, 5.9 µM; in the assay on SW626 it was 3.9 µM.

`CCCCCc1ccc(S(=O)(=O)NC2(CC(=O)O)CC[N+](C)(C)C2)cc1` (stereo not shown) [Example S20, 3-(carboxymethyl)-1,1-dimethyl-3-(4-pentylphenylsulfonamido)-pyrrolidinium 2,2,2-trifluoroacetate]: the “Percentage of Growth Inhibition” value is given as 0.01263% in the assay with SW620, 0.3647% with COLO-205, 0.2269% in the assay on MCF-7 and 0.07399% in the assay with SW626.

On to `CCCCCCCCCCc1ccc(C(=O)NC2(CC(=O)O)CCN(C)C2)cc1` (stereo not shown) [Example S21, 3-(carboxymethyl)-3-(4-decylbenzamido)-1-methylpyrrolidinium 2,2,2-trifluoroacetate], for which the “Percentage of Growth Inhibition” value is 0.07327% in the assay on SW620, 0.02151% in the assay with COLO-205, 0.01838% in the assay on MCF-7 and 0.154% in the assay on SW626.

As for `CCCCCCCCCCc1ccc(C(=O)NC2(CC(=O)O)CC[N+](C)(C)C2)cc1` (stereo not shown) [Example S22, 3-(Carboxymethyl)-3-(4-decylbenzamido)-1,1-dimethylpyrrolidinium 2,2,2-trifluoroacetate], the “Percentage of Growth Inhibition” value in the assay with SW620 is listed as 0.2089%; in the assay on COLO-205, 0.08112%; with MCF-7, 0.06486%; in the assay on SW626, 0.2198%.

As to `CCCCCCCCc1ccc(NC(=O)NC2(CC(=O)O)CNC2)cc1` [Example S23, 3-(carboxymethyl)-3-(3-(4-octylphenyl)ureido)azetidinium 2,2,2-trifluoroacetate], the GI50 with SW620 is 43 µM; in the assay on COLO-205, 35 µM; in the assay on MCF-7, 26 µM; in the assay on SW626, 21 µM.

With `CCCCCCCCc1ccc(NC(=O)NC2(CC(=O)O)C[N+](C)(C)C2)cc1` [Example S24, 3-(Carboxymethyl)-1,1-dimethyl-3-(3-(4-octylphenyl)ureido)azetidinium 2,2,2-trifluoroacetate], the GI50 in the assay on SW620 is 44 µM; in the assay with COLO-205, 28 µM; in the assay on MCF-7 it was 27 µM; in the assay on SW626, 63 µM.

For `O=C(O)CC1(NC(=O)c2ccc(C#Cc3ccccc3)o2)CNC1` [Example S26, 3-(carboxymethyl)-3-(5-(phenylethynyl)furan-2-carboxamido)-azetidinium 2,2,2-trifluoroacetate], the “Percentage of Growth Inhibition” value was determined as 0.0551% with SW620, 0.1892% with COLO-205, 0.1403% in the assay on MCF-7 and 0.07378% with SW626.

Take `CCCCCc1ccc(S(=O)(=O)NC2(CC(=O)O)CN(C)C2)cc1` [Example S27, 3-(carboxymethyl)-1-methyl-3-(4-pentylphenylsulfonamido)azetidinium 2,2,2-trifluoroacetate]: the “Percentage of Growth Inhibition” value in the assay on MCF-7 came to 0.05347%.
